Molecular target: recombinant IL4I1 (Homo sapiens (Human), UniProt Q96RQ9)
Experiment: IL4I1 Enzymatic Assay (Amplex Red/HRP coupled H2O2 detection)
Format: biochemical
Settings: 1 nM IL4I1, 1 mM each Phe/Tyr/Trp, four-hour pre-incubation, 120 minutes reaction, top compound concentration of 10000 nM
Summary of the method: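 Recombinant IL4I1 (1 nM final) was pre-incubated 4 h at ambient temperature with compound in 50 mM Hepes pH 7.0, 0.005% Tween20. Reaction ran 120 min with 1 mM each Phe/Tyr/Trp, 0.05 mM Amplex Red and 1 U/mL HRP. Resorufin fluorescence (544/590 nm) was read, and EC50 fitted from ten-point 1:3 titrations (top 10000 nM) by four-parameter regression.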

Chain of recombinant IL4I1 (Q96RQ9 22-567): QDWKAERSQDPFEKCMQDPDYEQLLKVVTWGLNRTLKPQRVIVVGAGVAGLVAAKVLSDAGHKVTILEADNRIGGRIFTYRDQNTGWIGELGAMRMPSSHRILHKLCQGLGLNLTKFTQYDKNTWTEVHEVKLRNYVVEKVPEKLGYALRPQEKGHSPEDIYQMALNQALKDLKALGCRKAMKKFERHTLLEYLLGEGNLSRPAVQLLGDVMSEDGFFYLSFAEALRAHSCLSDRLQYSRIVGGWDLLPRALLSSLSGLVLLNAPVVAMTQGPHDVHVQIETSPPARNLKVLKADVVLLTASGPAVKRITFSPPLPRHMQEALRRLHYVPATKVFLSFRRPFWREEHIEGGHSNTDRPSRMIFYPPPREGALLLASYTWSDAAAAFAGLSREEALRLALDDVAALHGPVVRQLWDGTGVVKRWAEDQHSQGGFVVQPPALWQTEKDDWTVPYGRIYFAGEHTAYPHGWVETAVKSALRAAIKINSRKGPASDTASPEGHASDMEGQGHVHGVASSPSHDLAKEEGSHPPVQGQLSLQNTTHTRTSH

Compound | EC50 [nM]
CC(=O)Nc1ccc(Cc2cc3ccccc3[nH]c2=O)cn1 [Example 150, N-(5-((2-oxo-1,2-dihydroquinolin-3-yl)methyl)pyridin-2-yl)acetamide] | 16.9
CC(=O)N1Cc2ccc(Cc3cc4ccccc4[nH]c3=O)cc2C1 [Example 83, 3-((2-acetylisoindolin-5-yl)methyl)quinolin-2(1H)-one] | 3.8
O=c1[nH]c2ccccc2cc1Cc1nnc(Cc2ccc(Br)cc2)o1 [Example 23, 3-((5-(4-bromobenzyl)-1,3,4-oxadiazol-2-yl)methyl)quinolin-2(1H)-one] | 126
CC(C)(C#N)c1ccc(Cc2cc3cnccc3[nH]c2=O)cc1 [Example 100, 2-methyl-2-(4-((2-oxo-1,2-dihydro-1,6-naphthyridin-3-yl)methyl)phenyl)propanenitrile] | 7.3
O=C1OCCN1c1ncc(Cc2cc3ccccc3[nH]c2=O)cc1Cl [Example 53] | 5.6
NCc1cccc2cc(Cc3cccc(OC(F)(F)F)c3)c(=O)[nH]c12 [Example 178, 8-(aminomethyl)-3-(3-(trifluoromethoxy)benzyl)quinolin-2(1H)-one] | 99
O=c1[nH]c2ccccc2cc1Cc1ccc2c(c1)CCNC2 [Example 129, 3-((1,2,3,4-tetrahydroisoquinolin-6-yl)methyl)quinolin-2(1H)-one] | 13.6
O=c1[nH]c2ccccc2cc1Cc1ccc(N2CCCS2(=O)=O)nc1 [Example 46, 3-((6-(1,1-dioxidoisothiazolidin-2-yl)pyridin-3-yl)methyl)quinolin-2(1H)-one] | 5.9
CNCc1cccc2cc(Cc3cccc(OC(F)(F)F)c3)c(=O)[nH]c12 [Example 180, 8-((methylamino)methyl)-3-(3-(trifluoromethoxy)benzyl)quinolin-2(1H)-one] | 105
COc1ccc2[nH]c(=O)c(Cc3ccccc3)cc2c1 [Example 172, 3-benzyl-6-methoxyquinolin-2(1H)-one] | 532
Cc1cnc(-c2nnc(Cc3cc4ccccc4[nH]c3=O)o2)s1 [Example 22, 3-((5-(5-methylthiazol-2-yl)-1,3,4-oxadiazol-2-yl)methyl)quinolin-2(1H)-one] | 203
O=c1[nH]c2cnccc2cc1Cc1cccc(OC(F)(F)F)c1 [Example 103, 3-(3-(trifluoromethoxy)benzyl)-1,7-naphthyridin-2(1H)-one] | 466
CC1CC(=O)NC1c1ccc(Cc2cc3ccccc3[nH]c2=O)cc1 (centres unmarked) [Example 45, 3-(4-(3-methyl-5-oxopyrrolidin-2-yl)benzyl)quinolin-2(1H)-one] | 6.7
CC(=O)NCc1ccc(Cc2cc3ccccc3[nH]c2=O)cc1C [Example 168, N-(2-methyl-4-((2-oxo-1,2-dihydroquinolin-3-yl)methyl)benzyl)acetamide] | 3.4
O=c1[nH]c2ccccc2cc1Cc1ccc(N2CCNCC2)cc1 [Example 59, 3-(4-(piperazin-1-yl)benzyl)quinolin-2(1H)-one] | 23.6
NS(=O)(=O)Cc1ccc(Cc2cc3ccccc3[nH]c2=O)cc1 [Example 72, (4-((2-oxo-1,2-dihydroquinolin-3-yl)methyl)phenyl)methanesulfonamide] | 2.2
O=c1[nH]c2ccccc2cc1Cc1nnc(-c2cc3c(s2)CCC3)o1 [Example 39, 3-((5-(5,6-dihydro-4H-cyclopenta[b]thiophen-2-yl)-1,3,4-oxadiazol-2-yl)methyl)quinolin-2(1H)-one] | 10.2
O=C1NCc2ccc(Cc3cc4cnccc4[nH]c3=O)cc21 [Example 118, 3-((3-oxoisoindolin-5-yl)methyl)-1,6-naphthyridin-2(1H)-one] | 11.1
O=c1[nH]c2ccccc2cc1Cc1ccc(C2CNC2)cc1 [Example 63, 3-(4-(azetidin-3-yl)benzyl)quinolin-2(1H)-one] | 9.7
Cc1oncc1-c1nnc(Cc2cc3ccccc3[nH]c2=O)o1 [Example 29, 3-((5-(5-methylisoxazol-4-yl)-1,3,4-oxadiazol-2-yl)methyl)quinolin-2(1H)-one] | 547
CC(O)C(C#N)c1ccc(Cc2cc3ccccc3[nH]c2=O)cc1 (single isomer, unassigned) [Example 102B, 3-hydroxy-2-(4-((2-oxo-1,2-dihydroquinolin-3-yl)methyl)phenyl)butanenitrile] | 7.8
O=c1[nH]c2ccccc2cc1Cc1coc2ccccc12 [Example 136, 3-(benzofuran-3-ylmethyl)quinolin-2(1H)-one] | 0.5
N#CC1(c2ccc(Cc3cc4ccccc4[nH]c3=O)cc2)COC1 [Example 147, 3-(4-((2-oxo-1,2-dihydroquinolin-3-yl)methyl)phenyl)oxetane-3-carbonitrile] | 2.3

Reference: patent US20240287022A1 (Merck Sharp & Dohme LLC, priority 2021, published 2024)
